US9499570B2, “Boron containing small molecules” (priority 2010, dated 2016)
Entries after “also recorded” stand apart in the source; their conditions may differ.

Experiments:
Brugia malayi = Brugia malayi in vitro assay, adult female worms; settings: 50 uM
Method: Adult female worms are shipped from TRS Labs Inc. (Nonglak Supakorndej, Lab Director, 295 Research Dr., Athens, Ga. 30605; 706-549-0764) via Fed Ex. Individual worms are shipped in 2 mls vials with RPMI on Mondays and arrive at the […] Center lab on Tuesday mornings. Individual worms are poured into each well (24-well tissue culture plates) to avoid handling worms since they are very delicate and easily broken. Transport media is removed and replaced with 0.5 mls of RPMI-1640 (25 mM HEPES, 2 g/L NaHCO3, Antibiotic/Antimycotic, 5% HI FBS). Worms are maintained in a 37° C. 5% CO2 incubator. Compounds are added directly to each duplicate well (5 ul of 5 mM for a final concentration of 50 uM). DMSO (5 ul) is used as a negative control and Ivermectin (Sigma) is used as a positive control at 100 uM/well and 20 uM/well. Adult filarial nematodes can shed/give birth to microfilarial worms (mf) during the course of the assay. Wells were reviewed for the presence of mf, and the viability of mf, by visual observation of the well on the last day of observation (Day 7). Plates are examined once a day for 4-7 days. […] If changes are observed, worms are more closely examined under a dissecting microscope.

[1] = test system: Schistosoma mansoni adult worms; experiment: Schistosoma mansoni adult worm phenotype screen in vitro; settings: Second Set, 5 uM
Excerpt: (§1) Puerto Rican isolates of S. mansoni using Biomphalaria glabrata snails and golden hamsters as intermediate and definitive hosts, respectively, were maintained and handled in the University of California-San Francisco Sandler Center for Tropical Medicine. Patent B. glabrata snails (6-8 weeks after exposure to 5-10 infectious miracidia) were induced to shed infective larvae (cercariae) under light stimulus into the surrounding water. Cercariae were washed in rounds of ice-cold water and concentrated through and over sieves of varying pore sizes. They were then mechanically sheared (separation of heads from tails) as described in Colley D G, et al. Exp Parasitol 1974, 35:44-51, in ice-cold Incomplete Medium 169 (as described in Basch P F. J Parasitol 1981, 67:179-185, minus FBS and antibiotics) by passing 15 times through a double headed 22-gauge syringe needle connected to two 10 mL syringes. The resulting cercarial heads (schistosomula) were separated from their tails by swirling in a petri dish. Concentrated schistosomula were added to a sterile 1.5 mL centrifuge tube and allowed to settle over ice. Schistosomula were transferred to a sterile environment and washed 4 times in Incomplete Medium 169 prior to plating.
(§2) Two sets of screening were performed. In the first set, compounds were screened against schistosomula and observations were made at 24 hours, 2 days, 3 days, 4 days, and 6 days. In the second set, compounds were screened against schistosomula with observations at 24 hours, 2 days, 3 days, and 4 days and adult worms at 7 hours, 24 hours, 4 days, and 6 days.
Given the delicacy and size (0.5-1.5 cm in length) of this stage all operations were performed manually by the Sandler Center. 24-well plates were set up with compound (final DMSO concentration=0.5%) containing approximately 5 pairs of worms (S. mansoni has separate sexes) in 2 mL complete Basch medium per well. Plates were maintained at 37° C. in a 5% CO2 atmosphere. All compounds were tested in duplicate with at least two experimental replicates.
(§3) A semi-quantitative and controlled nomenclature for phenotypes that can arise as a result of compound insult to both schistosomula and adults was utilized (Abdulla M H, et al., PLoS Negl Trop Dis 2009, 3:e478). Phenotypes were recorded by visual inspection and on a flexible time basis but at least at 24 h and 4 day time-points in the case of large scale screening. […] To help eliminate bias, two screen analysts scored phenotypes ‘blind’ both to knowledge of the contents of each screening plate and the phenotypes scored by his/her colleague. Upon completing their individual assessments, each analyst's ‘hit sheet’ was then compared to derive a ‘consensus hit sheet’. Discrepancies in analysts' hit sheets were re-evaluated under the microscope to eventually make a consensus hit call.
(§4) Hyper-coiled and coiled represent a verbal description of the visual phenotype as compared to the DMSO control. The + and ++ and +++ means more of the phenotype which preceded it. The − means less of the phenotype which preceded it. Results

[2] = test system: Schistosoma mansoni schistosomula; experiment: Schistosoma mansoni schistosomula phenotype screen in vitro; settings: Second Set, 5 uM, listed as 6-(1-Hydroxy-1,3-dihydro-benzo[c][1,2]oxaborol-5-yloxy)-2-(4-oxo-pentyloxy)-5-ch
Excerpt: as §1, §2
Plates contain 200 schistosomula/well in […] complete Basch medium and were maintained at 37° C. in a 5% CO2 atmosphere. All compounds were tested in duplicate with at least two experimental replicates. Compounds and control compounds were added to the plates using the Biomek FXp using 96-well disposable tips. Final concentration of DMSO in each well was 0.5%.
as §3, §4

| SMILES | Presence and viability of microfilarial worms (mf) Day 7 (Brugia malayi; trial one) | Worm activity / phenotype Day 1 (Brugia malayi; trial one) | Worm activity / phenotype Day 3 (Brugia malayi; trial one) | Worm activity / phenotype Day 7 (Brugia malayi; trial one) | Presence and viability of microfilarial worms (mf) Day 7 (Brugia malayi; trial two) | Worm activity / phenotype Day 1 (Brugia malayi; trial two) | Worm activity / phenotype Day 2 (Brugia malayi; trial two) | Worm activity / phenotype Day 3 (Brugia malayi; trial two) | Worm activity / phenotype Day 7 (Brugia malayi; trial two) | Adult worm screen phenotype 7 h ([1]; 7 h, listed as 6-(1-Hydroxy-1,3-dihydro-benzo[c][1,2]oxaborol-5-yloxy)-2-(4-oxo-pentyloxy)-5-ch) | Adult worm screen phenotype 24 h ([1]; 24 h, listed as 6-(1-Hydroxy-1,3-dihydro-benzo[c][1,2]oxaborol-5-yloxy)-2-(4-oxo-pentyloxy)-5-ch) | Adult worm screen phenotype 4 d ([1]; 4 d, listed as 6-(1-Hydroxy-1,3-dihydro-benzo[c][1,2]oxaborol-5-yloxy)-2-(4-oxo-pentyloxy)-5-ch) | Adult worm screen phenotype 6 d* ([1]; 6 d) | Worm activity / phenotype Day 2 (Brugia malayi; trial one) | Schistosomula (juvenile infective form) worm screen phenotype 24 h ([2]; 24 h) | Schistosomula (juvenile infective form) worm screen phenotype 2 d ([2]; 2 d) | Schistosomula (juvenile infective form) worm screen phenotype 3 d ([2]; 3 d) | Schistosomula (juvenile infective form) worm screen phenotype 4 d ([2]; 4 d) |
| --- | --- | --- | --- | --- | --- | --- | --- | --- | --- | --- | --- | --- | --- | --- | --- | --- | --- | --- |
| CC(C)OCCOc1nc(Oc2ccc3c(c2)COB3O)ccc1C#N [6-(1-hydroxy-1,3-dihydrobenzo[c][1,2]oxaborol-5-yloxy)-2-(4-isopropoxyethoxy)nicotinonitrile] | mf and alive | hyper-; also recorded: coiled | hyper-; also recorded: coiled | 0, and coiled | no mf and obs | hyper-; also recorded: coiled | hyper-; also recorded: coiled | 4 (4=highly active (controls)) | 0, and coiled | – | – | – | – | – | – | – | – | – |
| CC(=O)CCCOc1nc(Oc2ccc3c(c2)COB3O)c(Cl)cc1C#N [D231, 5-Chloro-6-(1-hydroxy-1,3-dihydrobenzo[c][1,2]oxaborol-5-yloxy)-2-(4-oxopentyloxy)nicotinonitrile] | no mf and obs | hyper-; also recorded: coiled | – | 0, and coiled | no mf and obs | hyper-; also recorded: coiled | hyper-; also recorded: coiled | – | 0, and coiled | O+++,; also recorded: Sex sep (Sex sep=worm pairs have separated); also recorded: (violent; also recorded: motion) | O+++, Sex; also recorded: sep (violent; also recorded: motion) | O++, sex; also recorded: sep on sides,; also recorded: males dark | Dark, S | hyper-; also recorded: coiled | R, O++,; also recorded: some deg-m | O++, and R−, and more and deg-M | O++, R−,; also recorded: more deg-M | O++, R−,; also recorded: more deg-M |
